In brackets after ≈: the same amount, converted by molar mass.
The molecules below were run on M. tuberculosis (assay: microbe, parasite or virus in culture). Details: Mycobacterium tuberculosis, 120 h; read-out: QUM (MIC80).
Assay type: cell-based

| Compound | MIC80 |
| --- | --- |
| CCc1nc2ccc(Br)cn2c1C(=O)NCc1ccc(N2CCC(c3ccccc3)CC2)cc1 [Compound 1] | < 1 µM |
| CCc1nc2ccc(Br)cn2c1C(=O)NCc1ccc(N2CCC(c3ccc(OC)cc3)CC2)cc1 [Compound 2] | < 1 µM |
| CCc1nc2cc(C(F)(F)F)ccn2c1C(=O)NCc1ccc(N2CCC(c3ccccc3)CC2)cc1 [Compound 3] | < 1 µM |
| CCc1nc2cc(C(F)(F)F)ccn2c1C(=O)NCc1ccc(N2CCC(c3ccc(F)cc3)CC2)cc1 [Compound 4] | < 1 µM |
| CCc1nc2cc(F)ccn2c1C(=O)NCc1ccc(N2CCC(c3ccc(C)cc3)CC2)cc1 [Compound 5] | < 1 µM |
| CCc1nc2c(F)cccn2c1C(=O)NCc1ccc(N2CCC(c3ccc(C)cc3)CC2)cc1 [Compound 6] | < 1 µM |
| CCc1nc2ccc(Cl)cn2c1C(=O)NCc1ccc(N2CCC(c3ccc(C)cc3)CC2)cc1 [Compound 7] | < 1 µM |
| CCc1nc2c(C)cccn2c1C(=O)NCc1ccc(N2CCC(c3ccc(OC)cc3)CC2)cc1 [Compound 8] | < 1 µM |
| CCc1nc2ccc(C)cn2c1C(=O)NCc1ccc(N2CCN(c3ccccc3)CC2)cc1 [Compound 9] | < 1 µM |
| CCc1nc2cc(OC)ccn2c1C(=O)NCc1ccc(N2CCN(c3ccc(OC(F)(F)F)cc3)CC2)cc1 [Compound 10] | < 1 µM |
| CCc1nc2ccc(F)cn2c1C(=O)NCc1ccc(N2CCC(c3ccc(C(F)(F)F)cc3)CC2)cc1 [Compound 11] | < 1 µM |
| CCc1nc2c(F)cccn2c1C(=O)NCc1ccc(N2CCC(c3ccc(C(F)(F)F)cc3)CC2)cc1 [Compound 12] | < 1 µM |
| CCc1nc2cc(Cl)ccn2c1C(=O)NCc1ccc(N2CCC(c3ccc(C(F)(F)F)cc3)CC2)cc1 [Compound 13] | < 1 µM |
| CCc1nc2cc(F)ccn2c1C(=O)NCc1ccc(N2CCC(c3ccc(OC)cc3)CC2)cc1 [Compound 14] | < 1 µM |
| CCc1nc2c(F)cccn2c1C(=O)NCc1ccc(N2CCC(c3ccc(OC)cc3)CC2)cc1 [Compound 15] | < 1 µM |
| CCc1nc2ccc(Cl)cn2c1C(=O)NCc1ccc(N2CCC(c3ccc(OC)cc3)CC2)cc1 [Compound 16] | < 1 µM |
| CCc1nc2cc(F)ccn2c1C(=O)NCc1ccc(N2CCC(c3ccc(Cl)cc3)CC2)cc1 [Compound 17] | < 1 µM |
| CCc1nc2cc(OC)ccn2c1C(=O)NCc1ccc(N2CCC(c3ccccc3)CC2)cc1 [Compound 18] | < 1 µM |
| CCc1nc2ccc(C)cn2c1C(=O)NCc1ccc(N2CCC(c3ccc(F)cc3)CC2)cc1 [Compound 19] | < 1 µM |
| CCc1nc2cc(OC)ccn2c1C(=O)NCc1ccc(N2CCC(c3ccc(F)cc3)CC2)cc1 [Compound 20] | < 1 µM |
| CCc1nc2cc(OC)ccn2c1C(=O)NCc1ccc(N2CCC(c3ccc(Cl)cc3)CC2)cc1 [Compound 21] | < 1 µM |
| CCc1nc2c(C(F)(F)F)cccn2c1C(=O)NCc1ccc(N2CCC(c3ccc(Cl)cc3)CC2)cc1 [Compound 22] | 1 to 20 µM (≈ 0.541 to 10.8 µg/mL) |
| CCc1nc2cc(OC)ccn2c1C(=O)NCc1ccc(N2CCC(c3ccc(C)cc3)CC2)cc1 [Compound 23] | < 1 µM |
| CCc1nc2cc(C(F)(F)F)ccn2c1C(=O)NCc1ccc(N2CCC(c3ccc(C)cc3)CC2)cc1 [Compound 24] | < 1 µM |
| CCc1nc2c(C(F)(F)F)cccn2c1C(=O)NCc1ccc(N2CCC(c3ccc(C)cc3)CC2)cc1 [Compound 25] | 1 to 20 µM (≈ 0.521 to 10.4 µg/mL) |
| CCc1nc2cc(C(F)(F)F)ccn2c1C(=O)NCc1ccc(N2CCC(c3ccc(C(F)(F)F)cc3)CC2)cc1 [Compound 26] | < 1 µM |

| Compound | MIC80 |
| --- | --- |
| CCc1nc2c(C(F)(F)F)cccn2c1C(=O)NCc1ccc(N2CCC(c3ccc(OC)cc3)CC2)cc1 [Compound 27] | 1 to 20 µM (≈ 0.537 to 10.7 µg/mL) |
| CCc1nc2ccccn2c1C(=O)NCc1ccc(N2CCN(c3ccc(C)cc3)CC2)cc1 [Compound 28] | < 1 µM |
| CCc1nc2ccccn2c1C(=O)NCc1ccc(N2CCN(c3ccc(C(F)(F)F)cc3)CC2)cc1 [Compound 29] | < 1 µM |
| CCc1nc2ccccn2c1C(=O)NCc1ccc(N2CCN(c3ccc(OC)cc3)CC2)cc1 [Compound 30] | < 1 µM |
| CCc1nc2c(F)cccn2c1C(=O)NCc1ccc(N2CCN(c3ccc(C)cc3)CC2)cc1 [Compound 31] | < 1 µM |
| CCc1nc2c(F)cccn2c1C(=O)NCc1ccc(N2CCN(c3ccc(OC)cc3)CC2)cc1 [Compound 32] | < 1 µM |
| CCc1nc2ccc(Cl)cn2c1C(=O)NCc1ccc(N2CCN(c3ccc(OC)cc3)CC2)cc1 [Compound 33] | < 1 µM |
| CCc1nc2c(Br)cccn2c1C(=O)NCc1ccc(N2CCC(c3ccc(C)cc3)CC2)cc1 [Compound 34] | 1 to 20 µM (≈ 0.531 to 10.6 µg/mL) |
| CCc1nc2cc(Cl)ccn2c1C(=O)NCc1ccc(N2CCN(c3ccc(C)cc3)CC2)cc1 [Compound 35] | < 1 µM |
| CCc1nc2ccc(Cl)cn2c1C(=O)NCc1ccc(N2CCN(c3ccc(C)cc3)CC2)cc1 [Compound 36] | < 1 µM |
| CCc1nc2ccccn2c1C(=O)NCc1ccc(N2CCN(c3ccc(Cl)cc3)CC2)cc1 [Compound 37] | < 1 µM |
| CCc1nc2c(C)cccn2c1C(=O)NCc1ccc(N2CCN(c3ccc(OC)cc3)CC2)cc1 [Compound 38] | < 1 µM |
| CCc1nc2c(C)cccn2c1C(=O)NCc1ccc(N2CCN(c3ccc(C)cc3)CC2)cc1 [Compound 39] | < 1 µM |
| CCc1nc2c(C)cccn2c1C(=O)NCc1ccc(N2CCN(c3ccc(C(F)(F)F)cc3)CC2)cc1 [Compound 40] | < 1 µM |
| CCc1nc2c(C)cccn2c1C(=O)NCc1ccc(N2CCN(c3ccccc3)CC2)cc1 [Compound 41] | < 1 µM |
| CCc1nc2ccc(F)cn2c1C(=O)NCc1ccc(N2CCN(c3ccc(OC(F)(F)F)cc3)CC2)cc1 [Compound 42] | < 1 µM |
| CCc1nc2c(C)cccn2c1C(=O)NCc1ccc(N2CCN(c3ccc(Cl)cc3)CC2)cc1 [Compound 43] | < 1 µM |
| CCc1nc2c(C)cccn2c1C(=O)NCc1ccc(N2CCN(c3ccc(OC(F)(F)F)cc3)CC2)cc1 [Compound 44] | < 1 µM |
| CCc1nc2ccc(Cl)cn2c1C(=O)NCc1ccc(N2CCN(c3ccc(Cl)cc3)CC2)cc1 [Compound 45] | < 1 µM |
| CCc1nc2cc(Cl)ccn2c1C(=O)NCc1ccc(N2CCN(c3ccc(OC)cc3)CC2)cc1 [Compound 46] | < 1 µM |
| CCc1nc2c(Cl)cccn2c1C(=O)NCc1ccc(N2CCN(c3ccc(Cl)cc3)CC2)cc1 [Compound 47] | < 1 µM |
| CCc1nc2ccc(Cl)cn2c1C(=O)NCc1ccc(N2CCN(c3ccc(C(F)(F)F)cc3)CC2)cc1 [Compound 48] | < 1 µM |
| CCc1nc2c(Cl)cccn2c1C(=O)NCc1ccc(N2CCN(c3ccc(C(F)(F)F)cc3)CC2)cc1 [Compound 49] | < 1 µM |
| CCc1nc2c(Cl)cccn2c1C(=O)NCc1ccc(N2CCN(c3ccc(OC)cc3)CC2)cc1 [Compound 50] | < 1 µM |
| CCc1nc2cc(C)ccn2c1C(=O)NCc1ccc(N2CCC(c3ccc(C(F)(F)F)cc3)CC2)cc1 [Compound 51] | < 1 µM |
| CCc1nc2cc(C)ccn2c1C(=O)NCc1ccc(N2CCC(c3ccc(Cl)cc3)CC2)cc1 [Compound 52] | < 1 µM |

| Compound | MIC80 |
| --- | --- |
| CCc1nc2c(Cl)cccn2c1C(=O)NCc1ccc(N2CCC(c3ccc(Cl)cc3)CC2)cc1 [Compound 53] | < 1 µM |
| CCc1nc2cc(C)ccn2c1C(=O)NCc1ccc(N2CCN(c3ccc(OC)cc3)CC2)cc1 [Compound 54] | < 1 µM |
| CCc1nc2ccc(C)cn2c1C(=O)NCc1ccc(N2CCN(c3ccc(OC(F)(F)F)cc3)CC2)cc1 [Compound 55] | < 1 µM |
| CCc1nc2ccc(C)cn2c1C(=O)NCc1ccc(N2CCN(c3ccc(OC)cc3)CC2)cc1 [Compound 56] | < 1 µM |
| CCc1nc2cc(OC)ccn2c1C(=O)NCc1ccc(N2CCN(c3ccc(C(F)(F)F)cc3)CC2)cc1 [Compound 57] | < 1 µM |
| CCc1nc2c(OC)cccn2c1C(=O)NCc1ccc(N2CCN(c3ccc(OC)cc3)CC2)cc1 [Compound 58] | 1 to 20 µM (≈ 0.5 to 9.99 µg/mL) |
| CCc1nc2cc(C)ccn2c1C(=O)NCc1ccc(N2CCN(c3ccc(Cl)cc3)CC2)cc1 [Compound 59] | < 1 µM |
| CCc1nc2ccc(C)cn2c1C(=O)NCc1ccc(N2CCN(c3ccc(C(F)(F)F)cc3)CC2)cc1 [Compound 60] | < 1 µM |
| CCc1nc2cc(C)ccn2c1C(=O)NCc1ccc(N2CCN(c3ccc(C(F)(F)F)cc3)CC2)cc1 [Compound 61] | < 1 µM |
| CCc1nc2ccccn2c1C(=O)NCc1ccc(N2CCN(c3ccccc3)CC2)cc1 [Compound 62] | < 1 µM |
| CCc1nc2c(F)cccn2c1C(=O)NCc1ccc(N2CCN(c3ccc(Cl)cc3)CC2)cc1 [Compound 63] | < 1 µM |
| CCc1nc2c(Cl)cccn2c1C(=O)NCc1ccc(N2CCN(c3ccccc3)CC2)cc1 [Compound 64] | < 1 µM |
| CCc1nc2ccc(C)cn2c1C(=O)NCc1ccc(N2CCN(c3ccc(C)cc3)CC2)cc1 [Compound 65] | < 1 µM |
| CCc1nc2ccc(C)cn2c1C(=O)NCc1ccc(N2CCN(c3ccc(Cl)cc3)CC2)cc1 [Compound 66] | < 1 µM |
| CCc1nc2cc(C)ccn2c1C(=O)NCc1ccc(N2CCN(c3ccccc3)CC2)cc1 [Compound 67] | < 1 µM |
| CCc1nc2ccc(Cl)cn2c1C(=O)NCc1ccc(N2CCN(c3ccccc3)CC2)cc1 [Compound 68] | < 1 µM |
| CCc1nc2cc(F)ccn2c1C(=O)NCc1ccc(N2CCN(c3ccccc3)CC2)cc1 [Compound 69] | < 1 µM |
| CCc1nc2c(F)cccn2c1C(=O)NCc1ccc(N2CCN(c3ccccc3)CC2)cc1 [Compound 70] | < 1 µM |
| CCc1nc2ccc(F)cn2c1C(=O)NCc1ccc(N2CCN(c3ccccc3)CC2)cc1 [Compound 71] | < 1 µM |
| CCc1nc2ccc(Br)cn2c1C(=O)NCc1ccc(N2CCC(c3ccc(F)cc3)CC2)cc1 [Compound 72] | < 1 µM |
| CCc1nc2c(C)cccn2c1C(=O)NCc1ccc(N2CCC(c3ccccc3)CC2)cc1 [Compound 73] | < 1 µM |
| CCc1nc2cc(F)ccn2c1C(=O)NCc1ccc(N2CCN(c3ccc(OC)cc3)CC2)cc1 [Compound 74] | < 1 µM |
| CCc1nc2ccc(F)cn2c1C(=O)NCc1ccc(N2CCN(c3ccc(C)cc3)CC2)cc1 [Compound 75] | < 1 µM |
| CCc1nc2ccc(F)cn2c1C(=O)NCc1ccc(N2CCN(c3ccc(C(F)(F)F)cc3)CC2)cc1 [Compound 76] | < 1 µM |
| CCc1nc2ccc(F)cn2c1C(=O)NCc1ccc(N2CCN(c3ccc(Cl)cc3)CC2)cc1 [Compound 77] | < 1 µM |
